In patent publication US20220280572A1, “METHODS OF TREATING VASCULAR DISEASES” (Astellas Institute for Regenerative Medicine, priority 2019, published 2022):

System: lung microvasculature
Assay: Micro CT scanning of lungs from the SuHx model
Format: in vivo, rat
Conditions: SuHx rats; sildenafil treatment
Procedure: Endothelial progenitor cells are reported to preserve microvasculature in MCT treated lung (Zhao et al. Cir. Res. 96:442-450 (2005)). Therefore, micro CT scanning was performed on the lungs from the SuHx model treated with Nx control, vehicle, sildenafil, and 1 million and 5 million GMP1-HE cells.

CCCc1nn(C)c2c(=O)[nH]c(-c3cc(S(=O)(=O)N4CCN(C)CC4)ccc3OCC)nc12 [sildenafil]
capillary perfusion (microCT): modest improvement
